# Laboratory results as given in ChEMBL document CHEMBL5126541, “Recent applications of vinyl sulfone motif in drug design and discovery” (Eur J Med Chem, 2022).
# Assays:
# NCI-H1975 = assay: Cytotoxicity against human NCI-H1975 cells expressing EGFR T790 mutant incubated for 72 hrs by MTT assay; type: functional, cell-based; conditions: NCI-H1975, 72 h
# A549 = assay: Cytotoxicity against human A549 cells expressing EGFR incubated for 72 hrs by MTT assay; type: functional, cell-based; conditions: A549, 72 h
# A-431 = assay: Cytotoxicity against human A431 cells expressing EGFR incubated for 72 hrs by MTT assay; type: functional, cell-based; conditions: A-431, 72 h
# Ebolavirus = assay: Antiviral activity against Ebola virus pseudotyped infected in HEK293T cells assessed as reduction in viral cytopathic effect; type: functional, organism-based; conditions: Orthoebolavirus, HEK-293T
# SARS-CoV = assay: Antiviral activity against SARS-CoV Live SARS-CoV assay and cytotoxicity assessed as reduction in viral cytopathic effect; type: functional, organism-based; conditions: Severe acute respiratory syndrome-related coronavirus
# MDA-MB-231 = assay: Anticancer activity against human MDA-MB-231 cells; type: functional, cell-based
# A-375 = assay: Anticancer activity against human A-375 cells; type: functional, cell-based
# [1] = molecular target: Telomerase reverse transcriptase (Homo sapiens, UniProt O14746); assay: Inhibition of telomerase (unknown origin)
# Human alphaherpesvirus 3 = assay: Antiviral activity against VZV strain Oka bearing wild type thymidine kinase assessed as reduction in virus induced cytopathogenicity; type: functional, organism-based
# L1210 = assay: Antiproliferative activity against mouse L1210 cells treated for 48 hrs; type: functional, cell-based; conditions: L1210, 48 h
# HeLa [2] = assay: Antiproliferative activity against human HeLa cells treated for 4 days; type: functional, cell-based; conditions: 96 h
# CCRF-CEM = assay: Antiproliferative activity against human CEM cells treated for 96 hrs; type: functional, cell-based
# Fusarium solani = assay: Antifungal activity against Fusarium solani assessed as zone of inhibition; type: functional
# Escherichia coli = assay: Antimicrobial activity against Escherichia coli assessed as zone of inhibition; type: functional
# Staphylococcus aureus = assay: Antimicrobial activity against Staphylococcus aureus assessed as zone of inhibition at 100 uM; type: functional
# Klebsiella pneumoniae = assay: Antimicrobial activity against Klebsiella pneumoniae assessed as zone of inhibition; type: functional
# Curvularia lunata = assay: Antifungal activity against Cochliobolus lunatus assessed as zone of inhibition; type: functional
# Aspergillus niger = assay: Antifungal activity against Aspergillus niger assessed as zone of inhibition; type: functional
# Bacillus subtilis = assay: Antimicrobial activity against Bacillus subtilis assessed as zone of inhibition at 100 uM; type: functional
# HeLa [3] = assay: Cytotoxicity against human HeLa cells; type: functional, cell-based; conditions: pooled result: one value given for 5 cell lines, strains, targets or settings
# Homo sapiens = species on record: Homo sapiens; assay: Inhibition of PI3K (unknown origin) at 20 uM relative to control
# K562 = assay: Cytotoxicity against human K562 cells incubated for 48 hrs by MTT assay; type: functional, cell-based; conditions: K562, 48 h
# [4] = Cytotoxicity against human HO-8910 cells incubated for 48 hrs by MTT assay; type: functional, cell-based; conditions: HO-8910, 48 h
# [5] = Cytotoxicity against HBMSC cells incubated for 48 hrs by MTT assay; type: toxicity, cell-based; conditions: human
# ES-2 = assay: Cytotoxicity against human ES2 cells incubated for 48 hrs by MTT assay; type: functional, cell-based; conditions: ES-2, 48 h
# HUVEC = assay: Antitubulin activity against HUVEC assessed as morphological changes of tube incubated for 6 hrs by inverted microscope; type: functional, cell-based; conditions: Homo sapiens
# PC-12 = assay: Neuroprotection against H2O2-induced cell injury in rat PC-12 cells assessed as cell viability preincubated for 3 hrs followed by H2O2 addition measured after 5 hrs by MTT assay; type: functional; conditions: time 8 hrs
# SK-OV-3 = assay: Cytotoxicity against human SK-OV-3 cells assessed as reduction in cell viability; type: functional, cell-based
# OVCAR-3 = assay: Cytotoxicity against human OVCAR-3 cells assessed as reduction in cell viability; type: functional, cell-based
# MeWo = assay: Cytotoxicity against human MeWo cells assessed as reduction in cell viability; type: functional, cell-based
# PC-3 = assay: Cytotoxicity against human PC-3 cells assessed as reduction in cell viability; type: functional, cell-based
# HT-29 = assay: Cytotoxicity against human HT-29 cells assessed as reduction in cell viability; type: functional, cell-based
# [6] = Cytotoxicity against human SB2 cells assessed as reduction in cell viability; type: functional, cell-based
# Cholinesterase [7] = molecular target: Cholinesterase (Equus caballus, UniProt P81908); assay: Inhibition of horse serum BuChE preincubated for 5 mins followed by BuCh addition measured after 5 mins by Ellman's method
# Cholinesterase [8] = molecular target: T1, Cholinesterase (Homo sapiens, UniProt P06276); assay: Inhibition of human serum BuChE preincubated for 5 mins followed by BuCh addition measured after 5 mins by Ellman's method
# Acetylcholinesterase = Acetylcholinesterase (Homo sapiens, UniProt P22303); assay: Inhibition of AChE (unknown origin) preincubated for 5 mins followed by […] measured after 5 mins by Ellman's method
# Cholinesterase [9] = molecular target: T1, Cholinesterase; assay: Binding affinity to BuChE (unknown origin) assessed as inhibition constant
# [10] = Permeability of the compound across blood brain barrier by PAMPA; type: ADME, tissue-based; conditions: read-out: logBB (converted)
# [11] = Permeability across blood brain barrier assessed as central nervous system multi-parameter optimization score; type: ADME, tissue-based
# BV-2 = assay: Anti-infalmmatory activity in LPS-induced NO production in mouse BV-2 microglial cells preincubated for 3 hrs followed by LPS addition measured after 24 hrs by NO assay kit; type: functional, cell-based
# Telomerase reverse transcriptase, sequence (O14746 whole entry): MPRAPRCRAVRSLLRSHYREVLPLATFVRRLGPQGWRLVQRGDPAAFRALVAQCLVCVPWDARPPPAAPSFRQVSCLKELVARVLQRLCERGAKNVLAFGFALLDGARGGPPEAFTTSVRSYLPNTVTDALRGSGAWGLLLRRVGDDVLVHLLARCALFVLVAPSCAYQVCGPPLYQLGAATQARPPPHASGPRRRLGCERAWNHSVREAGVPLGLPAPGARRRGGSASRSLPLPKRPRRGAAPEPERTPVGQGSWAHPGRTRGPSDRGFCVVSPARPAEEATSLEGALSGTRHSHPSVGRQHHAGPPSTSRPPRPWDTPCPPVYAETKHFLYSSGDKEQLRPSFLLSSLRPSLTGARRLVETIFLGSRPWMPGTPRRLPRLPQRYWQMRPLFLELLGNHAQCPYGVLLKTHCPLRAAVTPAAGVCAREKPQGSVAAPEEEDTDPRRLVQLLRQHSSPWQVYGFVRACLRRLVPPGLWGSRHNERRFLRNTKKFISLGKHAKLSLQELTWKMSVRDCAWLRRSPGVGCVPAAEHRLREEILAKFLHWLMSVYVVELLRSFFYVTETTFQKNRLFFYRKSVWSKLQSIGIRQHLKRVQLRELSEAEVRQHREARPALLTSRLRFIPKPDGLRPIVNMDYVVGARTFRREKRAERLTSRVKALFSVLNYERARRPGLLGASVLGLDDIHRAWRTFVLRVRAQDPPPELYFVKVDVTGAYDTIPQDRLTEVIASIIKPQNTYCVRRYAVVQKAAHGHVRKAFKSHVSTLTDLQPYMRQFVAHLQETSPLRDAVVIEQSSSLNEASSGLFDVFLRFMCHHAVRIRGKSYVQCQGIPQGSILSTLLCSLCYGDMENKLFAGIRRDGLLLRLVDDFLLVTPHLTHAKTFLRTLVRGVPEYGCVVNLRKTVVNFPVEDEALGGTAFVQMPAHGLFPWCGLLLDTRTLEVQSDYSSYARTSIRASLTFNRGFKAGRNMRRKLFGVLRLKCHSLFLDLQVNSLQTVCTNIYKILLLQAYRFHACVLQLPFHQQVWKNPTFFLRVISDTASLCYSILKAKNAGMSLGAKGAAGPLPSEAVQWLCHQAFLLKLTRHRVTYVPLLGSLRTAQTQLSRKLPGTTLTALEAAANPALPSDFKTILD
# T1 sequence (P06276 whole entry): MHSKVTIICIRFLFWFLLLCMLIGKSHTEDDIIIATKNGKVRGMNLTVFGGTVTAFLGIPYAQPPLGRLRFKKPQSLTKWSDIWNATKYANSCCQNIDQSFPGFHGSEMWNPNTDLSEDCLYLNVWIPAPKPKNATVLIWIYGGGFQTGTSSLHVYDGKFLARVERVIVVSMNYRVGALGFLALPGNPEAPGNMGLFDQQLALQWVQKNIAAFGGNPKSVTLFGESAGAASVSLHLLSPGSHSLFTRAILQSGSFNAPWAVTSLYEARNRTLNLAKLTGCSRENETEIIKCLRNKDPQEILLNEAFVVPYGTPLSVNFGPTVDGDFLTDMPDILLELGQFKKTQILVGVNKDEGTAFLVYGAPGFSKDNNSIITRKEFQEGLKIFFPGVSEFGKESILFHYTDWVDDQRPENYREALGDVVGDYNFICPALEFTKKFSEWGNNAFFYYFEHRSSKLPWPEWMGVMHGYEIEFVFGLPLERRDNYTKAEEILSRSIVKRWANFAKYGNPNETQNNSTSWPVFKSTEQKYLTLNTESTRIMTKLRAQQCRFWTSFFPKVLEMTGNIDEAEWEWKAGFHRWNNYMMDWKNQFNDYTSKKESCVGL
# Cholinesterase (Equus caballus, UniProt P81908), sequence (P81908 whole entry): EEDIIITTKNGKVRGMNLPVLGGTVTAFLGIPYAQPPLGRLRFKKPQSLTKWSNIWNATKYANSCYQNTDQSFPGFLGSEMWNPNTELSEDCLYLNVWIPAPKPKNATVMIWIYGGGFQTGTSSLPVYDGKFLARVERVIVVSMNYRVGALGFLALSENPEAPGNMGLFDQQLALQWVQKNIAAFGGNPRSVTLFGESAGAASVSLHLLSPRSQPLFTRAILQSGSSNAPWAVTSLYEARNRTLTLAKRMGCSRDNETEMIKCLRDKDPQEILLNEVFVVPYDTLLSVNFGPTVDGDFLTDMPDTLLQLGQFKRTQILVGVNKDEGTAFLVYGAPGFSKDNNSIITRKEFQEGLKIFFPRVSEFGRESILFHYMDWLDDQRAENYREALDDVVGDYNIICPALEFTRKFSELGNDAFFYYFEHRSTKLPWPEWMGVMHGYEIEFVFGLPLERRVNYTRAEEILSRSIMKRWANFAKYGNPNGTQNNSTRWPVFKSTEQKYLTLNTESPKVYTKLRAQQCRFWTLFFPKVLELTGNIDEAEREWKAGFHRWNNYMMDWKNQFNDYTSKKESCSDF
# Acetylcholinesterase, sequence (P22303 whole entry): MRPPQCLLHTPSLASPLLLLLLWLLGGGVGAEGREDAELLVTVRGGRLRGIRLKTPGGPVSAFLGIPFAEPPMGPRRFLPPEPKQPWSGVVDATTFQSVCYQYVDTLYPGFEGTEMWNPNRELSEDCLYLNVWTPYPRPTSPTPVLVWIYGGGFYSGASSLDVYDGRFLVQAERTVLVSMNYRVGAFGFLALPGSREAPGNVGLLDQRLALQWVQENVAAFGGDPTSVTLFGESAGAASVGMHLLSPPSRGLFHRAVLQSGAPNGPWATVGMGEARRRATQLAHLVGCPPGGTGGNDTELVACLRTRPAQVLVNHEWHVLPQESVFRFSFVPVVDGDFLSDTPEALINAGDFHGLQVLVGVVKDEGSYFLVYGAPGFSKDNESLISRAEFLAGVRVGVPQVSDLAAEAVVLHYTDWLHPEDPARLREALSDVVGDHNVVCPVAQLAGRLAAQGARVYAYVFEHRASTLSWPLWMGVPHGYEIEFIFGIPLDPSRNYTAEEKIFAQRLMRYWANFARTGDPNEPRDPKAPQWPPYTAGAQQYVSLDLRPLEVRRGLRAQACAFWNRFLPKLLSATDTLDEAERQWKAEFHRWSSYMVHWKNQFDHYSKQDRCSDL
structure (smiles),measurement,setting,value
COc1cc(/C=C/S(=O)(=O)c2ccccc2)cc(OC)c1OC,IC50,NCI-H1975,30400 nM
same,IC50,A549,54600 nM
same,IC50,A-431,33500 nM
CCCN1CCN(C(=O)N[C@@H](Cc2ccccc2)C(=O)N[C@H](/C=C/S(=O)(=O)c2ccccc2)CCc2ccccc2)CC1,IC50,Ebolavirus,0.04 nM
same,IC50,SARS-CoV,0.04 nM
O=S(=O)(F)/C=C/C=C/c1ccc(/C=C/S(=O)(=O)F)cc1,IC50,MDA-MB-231,3220 nM
same,IC50,A-375,1580 nM
same,IC50,[1],< 1000 nM
CC(=O)OC[C@H]1O[C@@H](n2cc(/C(Cl)=C\S(=O)(=O)c3ccc(C)cc3)c(=O)[nH]c2=O)C[C@@H]1OC(C)=O,EC50,Human alphaherpesvirus 3,4000 nM
same,IC50,L1210,5600 nM
same,IC50,HeLa [2],23000 nM
same,IC50,CCRF-CEM,11000 nM
O=C(c1ccc(Cl)cc1)c1c[nH]cc1S(=O)(=O)c1c(-c2ccc(Cl)cc2)noc1-c1ccccc1,Activity,Fusarium solani,>26 mm
same,Activity,Escherichia coli,>20 mm
same,Activity,Staphylococcus aureus,>25 mm
same,Activity,Klebsiella pneumoniae,>20 mm
same,Activity,Curvularia lunata,>26 mm
same,Activity,Aspergillus niger,>26 mm
same,Activity,Bacillus subtilis,>25 mm
CC(=O)N1CCN(c2ccc(OCC3COC(Cn4ccnc4)(c4ccc(Cl)cc4Cl)O3)cc2)CC1 (centres undefined) [KETOCONAZOLE],Activity,Fusarium solani,>36 mm
same,Activity,Curvularia lunata,>36 mm
same,Activity,Aspergillus niger,>36 mm
O=S(=O)(F)/C=C/c1ccc2ccccc2c1,IC50,[1],< 1000 nM
O=c1[nH]c(=O)n([C@H]2C[C@H](O)[C@@H](CO)O2)cc1/C=C/Br [BRIVUDINE],EC50,Human alphaherpesvirus 3,20 nM
COCCN1CCN(C(=O)N[C@@H](Cc2ccccc2)C(=O)N[C@H](/C=C/S(=O)(=O)c2ccccc2)CCc2ccccc2)CC1,IC50,Ebolavirus,0.04 nM
same,IC50,SARS-CoV,0.04 nM
CC(C)N1CCN(C(=O)N[C@@H](Cc2ccccc2)C(=O)N[C@H](/C=C/S(=O)(=O)c2ccccc2)CCc2ccccc2)CC1,IC50,Ebolavirus,0.04 nM
same,IC50,SARS-CoV,0.04 nM
COc1cc(OC)c(/C=C/S(=O)(=O)Cc2ccc(OC)c(NCC(=O)O)c2)c(OC)c1 [RIGOSERTIB SODIUM],IC50,HeLa [3],10 nM
O=c1oc2ccc([N+](=O)[O-])cc2cc1S(=O)(=O)Cc1ccc(F)cc1,inhibition,Homo sapiens,50%
same,IC50,HeLa [3],18100 nM
O=S(=O)(F)/C=C/c1ccc(-c2ccccc2)cc1,IC50,[1],< 1000 nM
CN1CCN(C(=O)N[C@@H](Cc2ccccc2)C(=O)N[C@H](/C=C/S(=O)(=O)c2ccccc2)CCc2ccccc2)CC1 [K-777],IC50,Ebolavirus,0.36 nM
CC(=O)c1ccc(/C(=C\C(F)(F)F)S(=O)(=O)c2ccccc2)cc1,IC50,K562,200 nM
same,IC50,[4],400 nM
same,IC50 at 48 h,[5],200 nM
same,IC50,ES-2,400 nM
CC(C)(C)N1CCN(C(=O)N[C@@H](Cc2ccccc2)C(=O)N[C@H](/C=C/S(=O)(=O)c2ccccc2)CCc2ccccc2)CC1,IC50,Ebolavirus,0.04 nM
same,IC50,SARS-CoV,0.04 nM
COc1ccc(/C=C/S(=O)(=O)c2cc(OC)c(OC)c(OC)c2)cc1N,IC50,HUVEC,4250 nM
O=c1oc2ccc(Br)cc2cc1S(=O)(=O)Cc1ccc(F)cc1,inhibition,Homo sapiens,50%
same,IC50,HeLa [3],29300 nM
O=C(N[C@H](CO)[C@H](O)c1ccc([N+](=O)[O-])cc1)C(Cl)Cl [CHLORAMPHENICOL],Activity,Escherichia coli,>35 mm
same,Activity,Klebsiella pneumoniae,>35 mm
CCN1CCN(C(=O)N[C@@H](Cc2ccccc2)C(=O)N[C@H](/C=C/S(=O)(=O)c2ccccc2)CCc2ccccc2)CC1,IC50,Ebolavirus,0.04 nM
same,IC50,SARS-CoV,0.04 nM
O=S(=O)(/C=C/c1ccc(O)c(O)c1)CCCc1ccccc1,Activity,PC-12,94.5%
C=C(CCCCCCCCCCCCCCCC)S(=O)(=O)CCC[N+](C)(C)C,IC50,SK-OV-3,390 nM
same,IC50,OVCAR-3,390 nM
same,IC50,MeWo,390 nM
same,IC50,PC-3,390 nM
same,IC50,HT-29,390 nM
same,IC50,[6],390 nM
O=C(c1ccc(Cl)cc1)c1c[nH]cc1S(=O)(=O)c1n[nH]cc1-c1ccccc1,Activity,Fusarium solani,>26 mm
same,Activity,Escherichia coli,>20 mm
same,Activity,Staphylococcus aureus,>25 mm
same,Activity,Klebsiella pneumoniae,>20 mm
same,Activity,Curvularia lunata,>26 mm
same,Activity,Aspergillus niger,>26 mm
same,Activity,Bacillus subtilis,>25 mm
COc1ccccc1/C=C/C=C(\Br)S(=O)(=O)F,IC50,Cholinesterase [7],21 nM
same,IC50,Cholinesterase [8],3620 nM
same,IC50,Acetylcholinesterase,79 nM
same,Ki,Cholinesterase [9],29 nM
O=C(N[C@H](/C=C/S(=O)(=O)c1ccccc1)CCc1ccccc1)[C@H](Cc1ccccc1)NC(=O)N1CCN(c2ccccc2)CC1,IC50,Ebolavirus,0.04 nM
same,IC50,SARS-CoV,0.04 nM
O=S(=O)(/C=C/c1ccc(O)c(O)c1)CCCC1CCCC1,Kp,[10],0.316
same,Activity,[11],4.36
same,IC50,BV-2,1600 nM
